Data: EP0326326A1, “Cysteine derivatives” (SANTEN PHARMACEUTICAL CO., LTD., priority 1988, dated 1989)

Tests used:
[1] = tested on: haemolytic plaque-forming spleen cells; assay: Effect on immune response against sheep red blood cells of mouse (haemolytic plaque-forming spleen cell count); format: in vivo, female BALB/c mice; details: Erythrocyte, ip, 96 h, mice immunized with 5 x 10⁸ sheep red blood cells i.p., compound administered continuously for 4 days, calculated from the cell count, read-out: 50% suppressive dose
Method: According to the method of Iso ( Int. J. Immunotherapy, 1, 93 (1985)), 5 x 10⁸ sheep red blood cells were administered intraperitoneally to female BALB/c mice ( 3 to 5 mice a group ) and immunized.
After immunization, the test compound suspended in 1% methyl cellulose solution was administered continuously for 4 days.
Mice were killed and the number of haemolytic plaque-forming spleen cells were measured.
50% suppressive dose was calculated based on the cell count. For a comparison, the similar test with the known compound of the formula[IV] described in US Patent 4305958 was performed.

[2] = tested on: liver disorder caused by CCl₄; assay: Effect on the liver disorder caused by CCl₄ (serum GOT and GPT levels); format: in vivo, male Wistar rats; details: 24 hours after CCl₄ 0.25ml/kg intraperitoneally, test compound 300mg/kg orally 30 minutes before, rat
Method: The rat liver disorder model cause by CCl₄ is generally used to examine the efficacy of a drug for liver diseases.
The test compound was suspended in tragacanth gum solution and administered orally to male Wistar rats ( 5rats a group) at a dose of 300mg/kg.
Thirty minutes later, CCl₄ a liver disorder inducer, was given intraperitoneally at a dose of 0.25ml/kg.
Serum GOT and GPT levels were measured 24 hours after the administration of CCl₄ . To a control, 0.5% tragacanth gum solution was given.

ddY mice = assay: Acute toxicity; details: mouse, in vivo, po, 2000 mg/kg
Method: (§1) The compound No.2 was suspended in 0.5% methyl cellulose solution at 20% concentration. The solution was administered orally to ddY mice ( male, 5 weeks age, 6 mice a group ) at a dose of 2000mg/kg.

Acute toxicity = assay: Acute toxicity; set-up: species or system ddY mice; details: mouse, in vivo; oral, ddY mice, male, single dose of 2000mg/kg; read-out: LD₅₀
Method: as §1

Row | Structure (SMILES) | ED50 [1] [mg/kg] | GOT [2] | GPT [2] | Toxicity (ddY mice) | LD50 (Acute toxicity) [mg/kg]
1 | CC(C)(S)C(=O)NC(CS)C(=O)O (stereo not drawn) [known compound, reference compound] | 90.6 | – | – | – | –
2 | CC(C)(CS)C(=O)N[C@@H](CS)C(=O)O [Compound No.2, N-(2,2-Dimethyl-3-mercaptopropionyl)-L-cysteine] | 19.1 | 13605 | 6558 | weak with a single case of death | > 2000
